Data reported in patent US11345762B2, “Method for preparing liquid medium composition, and preparation device and kit therefor” (NISSAN CHEMICAL INDUSTRIES, LTD., priority 2015, dated 2022).

Tested on: Human lung cancer cell line A549
Assay: A549 cell proliferation suppressive test with anticancer agents in low adhesion plate (ATP, CellTiter-Glo)
Assay type: cell-based
Procedure: Deacylated gellan gum (KELCOGEL CG-LA, manufactured by Sansho Co., Ltd.) was suspended in ultra pure water (Milli-Q water) to 0.3% (w/v) or 0.75% (w/v), dissolved by stirring with heating at 90° C., and this aqueous solution was autoclave sterilized at 121° C. for 20 min. Using 0.3% solution, a medium composition was prepared by adding deacylated gellan gum (final concentration 0.015% (w/v)) to DMEM medium (manufactured by WAKO) containing 10% (v/v) fetal bovine serum. Fetal bovine serum was added at 10% (v/v) to a medium composition prepared in Example 7.
Human lung cancer cell line A549 (manufactured by DS PHARMA BIOMEDICAL) was seeded in the above-mentioned medium composition added with deacylated gellan gum (conventional method) or the medium composition of Example 7 at 14800 cells/mL, and dispensed to the wells of a 96 well flat bottom ultra-low adhesive surface microplate (Corning Incorporated manufactured by, #3474) at 135 μL per […]. As a negative control, A549 cells were suspended in the above-mentioned medium free of deacylated gellan gum and dispensed. Each plate was cultured in a static state in a CO2 incubator (37° C., 5% CO2). On day 1 of culture, medium compositions (conventional method and the production method of the present invention) containing each anticancer agent at 10-fold concentration and deacylated gellan gum (final concentration 0.015% (w/v)), and a medium composition containing each anticancer agent alone at 10-fold concentration (non-addition method), 15 μL each, was added to a final concentration of 0.001 to 30 μM, and culture was continued for 7 days. As the anticancer agent, Trametinib (manufactured by Santa Cruz, MEK inhibitor) and MK-2206 (manufactured by Santa Cruz, Akt inhibitor) were used. ATP reagent (150 μL, CellTiter-Glo™ Luminescent Cell Viability Assay, manufactured by Promega) was added to the culture media on days 5 and 8 and suspended therein, stood for about 10 min at room temperature, and the luminescence intensity (RLU value) was measured by FlexStation3 (manufactured by Molecular Devices), from which the luminescence with the medium alone was subtracted to measure the number of viable cells.

[1] = A549, day 4 of static culture, 0.03 μM, conventional method
[2] = A549, day 4 of static culture, 0.03 μM, non-addition method
[3] = A549, day 4 of static culture, 0.03 μM, production method of present invention
[4] = A549, day 7 of static culture, 0.03 μM, conventional method
[5] = A549, day 7 of static culture, 0.03 μM, non-addition method
[6] = A549, day 7 of static culture, 0.03 μM, production method of present invention
[7] = A549, day 4 of static culture, 0.001 μM, conventional method
[8] = A549, day 4 of static culture, 0.001 μM, non-addition method
[9] = A549, day 4 of static culture, 0.001 μM, production method of present invention
[10] = A549, day 4 of static culture, 0.01 μM, conventional method
[11] = A549, day 4 of static culture, 0.01 μM, non-addition method
[12] = A549, day 4 of static culture, 0.01 μM, production method of present invention
[13] = A549, day 7 of static culture, 0.001 μM, conventional method
[14] = A549, day 7 of static culture, 0.001 μM, non-addition method
[15] = A549, day 7 of static culture, 0.001 μM, production method of present invention
[16] = A549, day 7 of static culture, 0.01 μM, conventional method
[17] = A549, day 7 of static culture, 0.01 μM, non-addition method
[18] = A549, day 7 of static culture, 0.01 μM, production method of present invention

Compound: NC1(c2ccc(-c3nc4ccn5c(=O)[nH]nc5c4cc3-c3ccccc3)cc2)CCC1 [MK-2206]
- % control of RLU value (ATP measurement, luminescence intensity) [1]: 100 % Control
- % control of RLU value (ATP measurement, luminescence intensity) [2]: 108 % Control
- % control of RLU value (ATP measurement, luminescence intensity) [3]: 85 % Control
- % control of RLU value (ATP measurement, luminescence intensity) (A549, day 4 of static culture, 0.1 μM, conventional method): 91 % Control
- % control of RLU value (ATP measurement, luminescence intensity) (A549, day 4 of static culture, 0.1 μM, non-addition method): 99 % Control
- % control of RLU value (ATP measurement, luminescence intensity) (A549, day 4 of static culture, 0.1 μM, production method of present invention): 74 % Control
- % control of RLU value (ATP measurement, luminescence intensity) (A549, day 4 of static culture, 0.3 μM, conventional method): 71 % Control
- % control of RLU value (ATP measurement, luminescence intensity) (A549, day 4 of static culture, 0.3 μM, non-addition method): 93 % Control
- % control of RLU value (ATP measurement, luminescence intensity) (A549, day 4 of static culture, 0.3 μM, production method of present invention): 60 % Control
- % control of RLU value (ATP measurement, luminescence intensity) (A549, day 4 of static culture, 1 μM, conventional method): 50 % Control
- % control of RLU value (ATP measurement, luminescence intensity) (A549, day 4 of static culture, 1 μM, non-addition method): 78 % Control
- % control of RLU value (ATP measurement, luminescence intensity) (A549, day 4 of static culture, 1 μM, production method of present invention): 43 % Control
- % control of RLU value (ATP measurement, luminescence intensity) (A549, day 4 of static culture, 3 μM, conventional method): 38 % Control
- % control of RLU value (ATP measurement, luminescence intensity) (A549, day 4 of static culture, 3 μM, non-addition method): 62 % Control
- % control of RLU value (ATP measurement, luminescence intensity) (A549, day 4 of static culture, 3 μM, production method of present invention): 33 % Control
- % control of RLU value (ATP measurement, luminescence intensity) [4]: 92 % Control
- % control of RLU value (ATP measurement, luminescence intensity) [5]: 124 % Control
- % control of RLU value (ATP measurement, luminescence intensity) [6]: 80 % Control
- % control of RLU value (ATP measurement, luminescence intensity) (A549, day 7 of static culture, 0.1 μM, conventional method): 83 % Control
- % control of RLU value (ATP measurement, luminescence intensity) (A549, day 7 of static culture, 0.1 μM, non-addition method): 101 % Control
- % control of RLU value (ATP measurement, luminescence intensity) (A549, day 7 of static culture, 0.1 μM, production method of present invention): 69 % Control
- % control of RLU value (ATP measurement, luminescence intensity) (A549, day 7 of static culture, 0.3 μM, conventional method): 63 % Control
- % control of RLU value (ATP measurement, luminescence intensity) (A549, day 7 of static culture, 0.3 μM, non-addition method): 103 % Control
- % control of RLU value (ATP measurement, luminescence intensity) (A549, day 7 of static culture, 0.3 μM, production method of present invention): 54 % Control
- % control of RLU value (ATP measurement, luminescence intensity) (A549, day 7 of static culture, 1 μM, conventional method): 38 % Control
- % control of RLU value (ATP measurement, luminescence intensity) (A549, day 7 of static culture, 1 μM, non-addition method): 85 % Control
- % control of RLU value (ATP measurement, luminescence intensity) (A549, day 7 of static culture, 1 μM, production method of present invention): 34 % Control
- % control of RLU value (ATP measurement, luminescence intensity) (A549, day 7 of static culture, 3 μM, conventional method): 26 % Control
- % control of RLU value (ATP measurement, luminescence intensity) (A549, day 7 of static culture, 3 μM, non-addition method): 76 % Control
- % control of RLU value (ATP measurement, luminescence intensity) (A549, day 7 of static culture, 3 μM, production method of present invention): 21 % Control
- efficacy on A549 cell proliferation in the medium composition of the present invention (in words) (A549, medium composition of the present invention): strong efficacy

Compound: CC(=O)Nc1cccc(-n2c(=O)n(C3CC3)c(=O)c3c(Nc4ccc(I)cc4F)n(C)c(=O)c(C)c32)c1 [Trametinib]
- % control of RLU value (ATP measurement, luminescence intensity) [7]: 85 % Control
- % control of RLU value (ATP measurement, luminescence intensity) [8]: 76 % Control
- % control of RLU value (ATP measurement, luminescence intensity) [9]: 82 % Control
- % control of RLU value (ATP measurement, luminescence intensity) (A549, day 4 of static culture, 0.003 μM, conventional method): 65 % Control
- % control of RLU value (ATP measurement, luminescence intensity) (A549, day 4 of static culture, 0.003 μM, non-addition method): 57 % Control
- % control of RLU value (ATP measurement, luminescence intensity) (A549, day 4 of static culture, 0.003 μM, production method of present invention): 60 % Control
- % control of RLU value (ATP measurement, luminescence intensity) [10]: 61 % Control
- % control of RLU value (ATP measurement, luminescence intensity) [11]: 65 % Control
- % control of RLU value (ATP measurement, luminescence intensity) [12]: 57 % Control
- % control of RLU value (ATP measurement, luminescence intensity) [1]: 40 % Control
- % control of RLU value (ATP measurement, luminescence intensity) [2]: 46 % Control
- % control of RLU value (ATP measurement, luminescence intensity) [3]: 41 % Control
- % control of RLU value (ATP measurement, luminescence intensity) [13]: 81 % Control
- % control of RLU value (ATP measurement, luminescence intensity) [14]: 76 % Control
- % control of RLU value (ATP measurement, luminescence intensity) [15]: 76 % Control
- % control of RLU value (ATP measurement, luminescence intensity) (A549, day 7 of static culture, 0.003 μM, conventional method): 52 % Control
- % control of RLU value (ATP measurement, luminescence intensity) (A549, day 7 of static culture, 0.003 μM, non-addition method): 48 % Control
- % control of RLU value (ATP measurement, luminescence intensity) (A549, day 7 of static culture, 0.003 μM, production method of present invention): 48 % Control
- % control of RLU value (ATP measurement, luminescence intensity) [16]: 48 % Control
- % control of RLU value (ATP measurement, luminescence intensity) [17]: 56 % Control
- % control of RLU value (ATP measurement, luminescence intensity) [18]: 45 % Control
- % control of RLU value (ATP measurement, luminescence intensity) [4]: 25 % Control
- % control of RLU value (ATP measurement, luminescence intensity) [5]: 39 % Control
- % control of RLU value (ATP measurement, luminescence intensity) [6]: 24 % Control

Compound: CC(=O)O[C@H]1C(=O)[C@@]2(C)[C@H]([C@H](OC(=O)c3ccccc3)[C@]3(O)C[C@H](OC(=O)[C@H](O)[C@@H](NC(=O)c4ccccc4)c4ccccc4)C(C)=C1C3(C)C)[C@]1(OC(C)=O)CO[C@@H]1C[C@@H]2O [Paclitaxel]
- % control of RLU value (ATP measurement, luminescence intensity) [7]: 98 % Control
- % control of RLU value (ATP measurement, luminescence intensity) [8]: 112 % Control
- % control of RLU value (ATP measurement, luminescence intensity) [9]: 91 % Control
- % control of RLU value (ATP measurement, luminescence intensity) [10]: 31 % Control
- % control of RLU value (ATP measurement, luminescence intensity) [11]: 57 % Control
- % control of RLU value (ATP measurement, luminescence intensity) [12]: 32 % Control
- % control of RLU value (ATP measurement, luminescence intensity) [13]: 90 % Control
- % control of RLU value (ATP measurement, luminescence intensity) [14]: 116 % Control
- % control of RLU value (ATP measurement, luminescence intensity) [15]: 84 % Control
- % control of RLU value (ATP measurement, luminescence intensity) [16]: 12 % Control
- % control of RLU value (ATP measurement, luminescence intensity) [17]: 49 % Control
- % control of RLU value (ATP measurement, luminescence intensity) [18]: 12 % Control
